Experimental data as given in PubChem BioAssay (NCI).
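Each compound was tested at five concentrations against cells in 96-well plates for 48 hours. GI50: concentration for 50% inhibition of growth. TGI marks complete inhibition of growth.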

Tests used:
Test in all cases: growth of human tumour cells (NCI), 48 h
SNB-19 CNS = tested on: SNB-19 CNS
M14 melanoma = tested on: M14 melanoma
HCT-15 colon = tested on: HCT-15 colon
UACC-257 melanoma = tested on: UACC-257 melanoma
SK-MEL-2 melanoma = tested on: SK-MEL-2 melanoma
SN12C renal = tested on: SN12C renal
K-562 leukemia = tested on: K-562 leukemia
NCI-H522 lung = tested on: NCI-H522 lung
MDA-N = tested on: MDA-N
SW-620 colon = tested on: SW-620 colon
SK-MEL-5 melanoma = tested on: SK-MEL-5 melanoma
OVCAR-3 ovarian = tested on: OVCAR-3 ovarian
SNB-75 CNS = tested on: SNB-75 CNS
UACC-62 melanoma = tested on: UACC-62 melanoma
MOLT-4 leukemia = tested on: MOLT-4 leukemia
SK-MEL-28 melanoma = tested on: SK-MEL-28 melanoma
PC-3 prostate = tested on: PC-3 prostate
RXF 393 renal = tested on: RXF 393 renal
SK-OV-3 ovarian = tested on: SK-OV-3 ovarian
HOP-62 NSCLC = tested on: HOP-62 NSCLC
HS 578T breast = tested on: HS 578T breast
MDA-MB-231 breast = tested on: MDA-MB-231 breast
U251 CNS = tested on: U251 CNS
MCF7 breast = tested on: MCF7 breast
NCI/ADR-RES ovarian = tested on: NCI/ADR-RES ovarian
OVCAR-5 ovarian = tested on: OVCAR-5 ovarian
ACHN renal = tested on: ACHN renal
T-47D breast = tested on: T-47D breast

`[O]=[V]([OH])([OH])[OH]` gave a GI50 (SNB-19 CNS) greater than 100 µM, a TGI (SNB-19 CNS) greater than 100 µM and a GI50 (M14 melanoma) greater than 100 µM. It also gave a TGI (M14 melanoma) greater than 100 µM, a GI50 (HCT-15 colon) greater than 100 µM and a TGI (HCT-15 colon) greater than 100 µM. For the same compound, the GI50 (UACC-257 melanoma) was greater than 100 µM, the TGI (UACC-257 melanoma) was greater than 100 µM and the GI50 (SK-MEL-2 melanoma) was greater than 100 µM. The TGI (SK-MEL-2 melanoma) was greater than 100 µM, the GI50 (SN12C renal) was greater than 100 µM and the TGI (SN12C renal) was greater than 100 µM. The GI50 (K-562 leukemia) was greater than 100 µM, the TGI (K-562 leukemia) was greater than 100 µM and the GI50 (NCI-H522 lung) was greater than 100 µM. For the same compound, the TGI (NCI-H522 lung) was greater than 100 µM, the GI50 (MDA-N) was 94.6 µM and the TGI (MDA-N) was greater than 100 µM. The GI50 (SW-620 colon) was greater than 100 µM, the TGI (SW-620 colon) was greater than 100 µM and the GI50 (SK-MEL-5 melanoma) was greater than 100 µM. For the same compound, the TGI (SK-MEL-5 melanoma) was greater than 100 µM, the GI50 (OVCAR-3 ovarian) was greater than 100 µM and the TGI (OVCAR-3 ovarian) was greater than 100 µM. For the same compound, the GI50 (SNB-75 CNS) was greater than 100 µM, the TGI (SNB-75 CNS) was greater than 100 µM and the GI50 (UACC-62 melanoma) was greater than 100 µM. For the same compound, the TGI (UACC-62 melanoma) was greater than 100 µM, the GI50 (MOLT-4 leukemia) was greater than 100 µM and the TGI (MOLT-4 leukemia) was greater than 100 µM. For the same compound, the GI50 (SK-MEL-28 melanoma) was greater than 100 µM, the TGI (SK-MEL-28 melanoma) was greater than 100 µM and the GI50 (PC-3 prostate) was greater than 100 µM. For the same compound, the TGI (PC-3 prostate) was greater than 100 µM, the GI50 (RXF 393 renal) was greater than 100 µM and the TGI (RXF 393 renal) was greater than 100 µM. For the same compound, the GI50 (SK-OV-3 ovarian) was greater than 100 µM, the TGI (SK-OV-3 ovarian) was greater than 100 µM and the GI50 (HOP-62 NSCLC) was greater than 100 µM. It also gave a TGI (HOP-62 NSCLC) greater than 100 µM, a GI50 (HS 578T breast) greater than 100 µM and a TGI (HS 578T breast) greater than 100 µM. For the same compound, the GI50 (MDA-MB-231 breast) was greater than 100 µM, the TGI (MDA-MB-231 breast) was greater than 100 µM and the GI50 (U251 CNS) was greater than 100 µM. For the same compound, the TGI (U251 CNS) was greater than 100 µM, the GI50 (MCF7 breast) was greater than 100 µM and the TGI (MCF7 breast) was greater than 100 µM. It also gave a GI50 (NCI/ADR-RES ovarian) greater than 100 µM, a TGI (NCI/ADR-RES ovarian) greater than 100 µM and a GI50 (OVCAR-5 ovarian) greater than 100 µM. For the same compound, the TGI (OVCAR-5 ovarian) was greater than 100 µM, the GI50 (ACHN renal) was greater than 100 µM and the TGI (ACHN renal) was greater than 100 µM. It also gave a GI50 (T-47D breast) greater than 100 µM and a TGI (T-47D breast) greater than 100 µM.
